Laboratory results reported in patent US6365621B1, “Remedies or preventives for intractable epilepsy” (Pharmaceutical Co., Ltd., priority 1998, dated 2002).

Test system: kainate-induced amygdala seizures
Assay: Local cerebral glucose metabolism during kainate-induced amygdala seizures ([14C]deoxyglucose autoradiography)
Type: in vivo, rat
Set-up: key to Effect on local cerebral glucose metabolism rate: → : no change; →↓ : decreased in a low degree; ↓ : decreased in a moderate degree; ↓↓ : decreased in a high degree
Conditions: for Local glucose metabolism rate: average ± standard error
From the text: [Method for measuring cerebral glucose metabolism] Cannulas for injection of kainic acid were inserted in an assigned position of the left side of the amygdala of 18 Wistar male rats and fixed through the same procedure as described in Example I-1. Seven days after operation, polyethylene catheters were set and fixed to the femoral artery and vein of one side under halothane anesthesion, and the lower half of the body of each rat were put in plaster so as to prevent removal of the catheter. Upon awakening from narcotism, the same kainic acid solution as described in I-1 (1 μL) was injected through the cannula so as to induce seizures. After elapse of 90 minutes from injection of kainic acid, when limbic system seizures were in status epilepticus, 50, 100, or 200 mg/kg of nefiracetam was intravenously injected, whereas saline was injected into rats of the control group. After 60 minutes, 25 μCi of [^14C] deoxyglucose was intravenously injected. After the tracer was injected, blood was continuously collected from the artery for 45 minutes. When collection was finished, heads were cut off. Brains were extirpated immediately and instantly frozen in by hexane (−25° C.) cooled by dry ice. The frozen brain was sliced in a cryostat (−20° C.) so as to produce coronary, serial-frozen sections having a thickness of 20 μm. Subsequently, the sections were dried and put on high-speed X-ray film with a [^14C] standard, followed by seven-day-exposure in a cassette to thereby obtain an autoradiogram. The blood samples collected from the artery were centrifuged so as to collect plasma, the [^14C] radioactivity was measured by use of a liquid scintillation counter, and glucose concentration in plasma was measured.
The optical density of the intracerebral structure of each section was measured from the autoradiogram by use of a densitometer, and a glucose utilization rate of each intracerabral structure was calculated by use of the formula of Sokoloff (Sokoloff, L., Reivich, M., Kennedy, C., et al., J. Neurochemistry, 28: 897-916, 1977) based on [^14C] radioactivity and glucose concentration in plasma. The obtained data were compared quantitatively and statistically with those of the control group, through the Mann-Whitney U-test.

[1] = Amygdala, focal side, 100 mg/kg i.v.
[2] = Amygdala, non-focal side, 100 mg/kg i.v.
[3] = Brain stem reticular formation, focal side, 100 mg/kg i.v.
[4] = Brain stem reticular formation, non-focal side, 100 mg/kg i.v.
[5] = Candatum-putamen, focal side, 100 mg/kg i.v.
[6] = Candatum-putamen, non-focal side, 100 mg/kg i.v.
[7] = Cerebellar cortex, focal side, 100 mg/kg i.v.
[8] = Cerebellar cortex, non-focal side, 100 mg/kg i.v.
[9] = Corpus callosum, focal side, 100 mg/kg i.v.
[10] = Corpus callosum, non-focal side, 100 mg/kg i.v.
[11] = Frontal lobe cortex, focal side, 100 mg/kg i.v.
[12] = Frontal lobe cortex, non-focal side, 100 mg/kg i.v.
[13] = Hypothalamaus, focal side, 100 mg/kg i.v.
[14] = Hypothalamaus, non-focal side, 100 mg/kg i.v.
[15] = Occipital lobe cortex, focal side, 100 mg/kg i.v.
[16] = Occipital lobe cortex, non-focal side, 100 mg/kg i.v.
[17] = Parietal lobe cortex, focal side, 100 mg/kg i.v.
[18] = Parietal lobe cortex, non-focal side, 100 mg/kg i.v.
[19] = Sensorimotor area cortex, focal side, 100 mg/kg i.v.
[20] = Sensorimotor area cortex, non-focal side, 100 mg/kg i.v.
[21] = Septal area, focal side, 100 mg/kg i.v.
[22] = Septal area, non-focal side, 100 mg/kg i.v.
[23] = Substantia nigra, focal side, 100 mg/kg i.v.
[24] = Substantia nigra, non-focal side, 100 mg/kg i.v.
[25] = Temporal lobe cortex, focal side, 100 mg/kg i.v.
[26] = Temporal lobe cortex, non-focal side, 100 mg/kg i.v.
[27] = Thalamus, focal side, 100 mg/kg i.v.
[28] = Thalamus, non-focal side, 100 mg/kg i.v.
[29] = hippocampus, focal side, 100 mg/kg i.v.
[30] = hippocampus, non-focal side, 100 mg/kg i.v.

## Cc1cccc(C)c1NC(=O)CN1CCCC1=O [nefiracetam, N-(2,6-dimethylphenyl)-2-(2-oxo-1-pyrrolidinyl)acetamide]
200 mg/kg i.v.
  Regions with promoted glucose metabolism: the amygdala on the focal side is the only region where the metabolism is prompted
Amygdala, focal side, 50 mg/kg i.v.
  Effect on local cerebral glucose metabolism rate: →
[1]
  Effect on local cerebral glucose metabolism rate: →
  Local glucose metabolism rate: 201 ± 4.5 µmol/100 g/min
Amygdala, focal side, 200 mg/kg i.v.
  Effect on local cerebral glucose metabolism rate: ↓
Amygdala, non-focal side, 50 mg/kg i.v.
  Effect on local cerebral glucose metabolism rate: →
[2]
  Effect on local cerebral glucose metabolism rate: ↓↓
  Local glucose metabolism rate: 66.2 ± 3.8 µmol/100 g/min
Amygdala, non-focal side, 200 mg/kg i.v.
  Effect on local cerebral glucose metabolism rate: ↓↓
Brain stem reticular formation, focal side, 50 mg/kg i.v.
  Effect on local cerebral glucose metabolism rate: →
[3]
  Effect on local cerebral glucose metabolism rate: →↓
  Local glucose metabolism rate: 52.9 ± 3.5 µmol/100 g/min
Brain stem reticular formation, focal side, 200 mg/kg i.v.
  Effect on local cerebral glucose metabolism rate: ↓
Brain stem reticular formation, non-focal side, 50 mg/kg i.v.
  Effect on local cerebral glucose metabolism rate: →
[4]
  Effect on local cerebral glucose metabolism rate: ↓
  Local glucose metabolism rate: 49.6 ± 3.3 µmol/100 g/min
Brain stem reticular formation, non-focal side, 200 mg/kg i.v.
  Effect on local cerebral glucose metabolism rate: ↓
Candatum-putamen, focal side, 50 mg/kg i.v.
  Effect on local cerebral glucose metabolism rate: →
[5]
  Effect on local cerebral glucose metabolism rate: →
  Local glucose metabolism rate: 207 ± 16.5 µmol/100 g/min
Candatum-putamen, focal side, 200 mg/kg i.v.
  Effect on local cerebral glucose metabolism rate: ↓
Candatum-putamen, non-focal side, 50 mg/kg i.v.
  Effect on local cerebral glucose metabolism rate: →↓
[6]
  Effect on local cerebral glucose metabolism rate: ↓↓
  Local glucose metabolism rate: 73.1 ± 2.5 µmol/100 g/min
Candatum-putamen, non-focal side, 200 mg/kg i.v.
  Effect on local cerebral glucose metabolism rate: ↓↓
Cerebellar cortex, focal side, 50 mg/kg i.v.
  Effect on local cerebral glucose metabolism rate: →
[7]
  Effect on local cerebral glucose metabolism rate: →
  Local glucose metabolism rate: 47.2 ± 2.5 µmol/100 g/min
Cerebellar cortex, focal side, 200 mg/kg i.v.
  Effect on local cerebral glucose metabolism rate: →
Cerebellar cortex, non-focal side, 50 mg/kg i.v.
  Effect on local cerebral glucose metabolism rate: →
[8]
  Effect on local cerebral glucose metabolism rate: ↓
  Local glucose metabolism rate: 46.1 ± 2.1 µmol/100 g/min
Cerebellar cortex, non-focal side, 200 mg/kg i.v.
  Effect on local cerebral glucose metabolism rate: →
Corpus callosum, focal side, 50 mg/kg i.v.
  Effect on local cerebral glucose metabolism rate: →
[9]
  Effect on local cerebral glucose metabolism rate: →
  Local glucose metabolism rate: 21.9 ± 1.1 µmol/100 g/min
Corpus callosum, focal side, 200 mg/kg i.v.
  Effect on local cerebral glucose metabolism rate: →
Corpus callosum, non-focal side, 50 mg/kg i.v.
  Effect on local cerebral glucose metabolism rate: →
[10]
  Effect on local cerebral glucose metabolism rate: →
  Local glucose metabolism rate: 21.1 ± 1.1 µmol/100 g/min
Corpus callosum, non-focal side, 200 mg/kg i.v.
  Effect on local cerebral glucose metabolism rate: →
Frontal lobe cortex, focal side, 50 mg/kg i.v.
  Effect on local cerebral glucose metabolism rate: →
[11]
  Effect on local cerebral glucose metabolism rate: ↓
  Local glucose metabolism rate: 81.8 ± 5.7 µmol/100 g/min
Frontal lobe cortex, focal side, 200 mg/kg i.v.
  Effect on local cerebral glucose metabolism rate: ↓
Frontal lobe cortex, non-focal side, 50 mg/kg i.v.
  Effect on local cerebral glucose metabolism rate: →
[12]
  Effect on local cerebral glucose metabolism rate: ↓
  Local glucose metabolism rate: 65.7 ± 3.6 µmol/100 g/min
Frontal lobe cortex, non-focal side, 200 mg/kg i.v.
  Effect on local cerebral glucose metabolism rate: ↓
Hypothalamaus, focal side, 50 mg/kg i.v.
  Effect on local cerebral glucose metabolism rate: →
[13]
  Effect on local cerebral glucose metabolism rate: ↓
  Local glucose metabolism rate: 70.6 ± 4.7 µmol/100 g/min
Hypothalamaus, focal side, 200 mg/kg i.v.
  Effect on local cerebral glucose metabolism rate: ↓
Hypothalamaus, non-focal side, 50 mg/kg i.v.
  Effect on local cerebral glucose metabolism rate: →
[14]
  Effect on local cerebral glucose metabolism rate: →↓
  Local glucose metabolism rate: 58.5 ± 4.5 µmol/100 g/min
Hypothalamaus, non-focal side, 200 mg/kg i.v.
  Effect on local cerebral glucose metabolism rate: ↓
Occipital lobe cortex, focal side, 50 mg/kg i.v.
  Effect on local cerebral glucose metabolism rate: →
[15]
  Effect on local cerebral glucose metabolism rate: →↓
  Local glucose metabolism rate: 139 ± 5.6 µmol/100 g/min
Occipital lobe cortex, focal side, 200 mg/kg i.v.
  Effect on local cerebral glucose metabolism rate: ↓
Occipital lobe cortex, non-focal side, 50 mg/kg i.v.
  Effect on local cerebral glucose metabolism rate: →
[16]
  Effect on local cerebral glucose metabolism rate: →↓
  Local glucose metabolism rate: 78.6 ± 5.8 µmol/100 g/min
Occipital lobe cortex, non-focal side, 200 mg/kg i.v.
  Effect on local cerebral glucose metabolism rate: ↓
Parietal lobe cortex, focal side, 50 mg/kg i.v.
  Effect on local cerebral glucose metabolism rate: →
[17]
  Effect on local cerebral glucose metabolism rate: →↓
  Local glucose metabolism rate: 109 ± 10.6 µmol/100 g/min
Parietal lobe cortex, focal side, 200 mg/kg i.v.
  Effect on local cerebral glucose metabolism rate: ↓
Parietal lobe cortex, non-focal side, 50 mg/kg i.v.
  Effect on local cerebral glucose metabolism rate: →
[18]
  Effect on local cerebral glucose metabolism rate: →↓
  Local glucose metabolism rate: 72.1 ± 4.9 µmol/100 g/min
Parietal lobe cortex, non-focal side, 200 mg/kg i.v.
  Effect on local cerebral glucose metabolism rate: ↓
Sensorimotor area cortex, focal side, 50 mg/kg i.v.
  Effect on local cerebral glucose metabolism rate: →
[19]
  Effect on local cerebral glucose metabolism rate: →
  Local glucose metabolism rate: 139 ± 9 µmol/100 g/min
Sensorimotor area cortex, focal side, 200 mg/kg i.v.
  Effect on local cerebral glucose metabolism rate: ↓
Sensorimotor area cortex, non-focal side, 50 mg/kg i.v.
  Effect on local cerebral glucose metabolism rate: →
[20]
  Effect on local cerebral glucose metabolism rate: ↓
  Local glucose metabolism rate: 73.4 ± 4.7 µmol/100 g/min
Sensorimotor area cortex, non-focal side, 200 mg/kg i.v.
  Effect on local cerebral glucose metabolism rate: ↓
Septal area, focal side, 50 mg/kg i.v.
  Effect on local cerebral glucose metabolism rate: →
[21]
  Effect on local cerebral glucose metabolism rate: ↓
  Local glucose metabolism rate: 117 ± 22.7 µmol/100 g/min
Septal area, focal side, 200 mg/kg i.v.
  Effect on local cerebral glucose metabolism rate: ↓↓
Septal area, non-focal side, 50 mg/kg i.v.
  Effect on local cerebral glucose metabolism rate: →
[22]
  Effect on local cerebral glucose metabolism rate: ↓↓
  Local glucose metabolism rate: 56.9 ± 3.3 µmol/100 g/min
Septal area, non-focal side, 200 mg/kg i.v.
  Effect on local cerebral glucose metabolism rate: ↓↓
Substantia nigra, focal side, 50 mg/kg i.v.
  Effect on local cerebral glucose metabolism rate: →
[23]
  Effect on local cerebral glucose metabolism rate: ↓
  Local glucose metabolism rate: 77.6 ± 6.8 µmol/100 g/min
Substantia nigra, focal side, 200 mg/kg i.v.
  Effect on local cerebral glucose metabolism rate: ↓
Substantia nigra, non-focal side, 50 mg/kg i.v.
  Effect on local cerebral glucose metabolism rate: →
[24]
  Effect on local cerebral glucose metabolism rate: ↓
  Local glucose metabolism rate: 45.9 ± 2.7 µmol/100 g/min
Substantia nigra, non-focal side, 200 mg/kg i.v.
  Effect on local cerebral glucose metabolism rate: ↓
Temporal lobe cortex, focal side, 50 mg/kg i.v.
  Effect on local cerebral glucose metabolism rate: →
[25]
  Effect on local cerebral glucose metabolism rate: →↓
  Local glucose metabolism rate: 103 ± 6.2 µmol/100 g/min
Temporal lobe cortex, focal side, 200 mg/kg i.v.
  Effect on local cerebral glucose metabolism rate: ↓
Temporal lobe cortex, non-focal side, 50 mg/kg i.v.
  Effect on local cerebral glucose metabolism rate: →
[26]
  Effect on local cerebral glucose metabolism rate: ↓
  Local glucose metabolism rate: 67.8 ± 3.5 µmol/100 g/min
Temporal lobe cortex, non-focal side, 200 mg/kg i.v.
  Effect on local cerebral glucose metabolism rate: ↓
Thalamus, focal side, 50 mg/kg i.v.
  Effect on local cerebral glucose metabolism rate: →
[27]
  Effect on local cerebral glucose metabolism rate: ↓
  Local glucose metabolism rate: 90.5 ± 3.8 µmol/100 g/min
Thalamus, focal side, 200 mg/kg i.v.
  Effect on local cerebral glucose metabolism rate: ↓↓
Thalamus, non-focal side, 50 mg/kg i.v.
  Effect on local cerebral glucose metabolism rate: ↓
[28]
  Effect on local cerebral glucose metabolism rate: ↓↓
  Local glucose metabolism rate: 72.3 ± 2.8 µmol/100 g/min
Thalamus, non-focal side, 200 mg/kg i.v.
  Effect on local cerebral glucose metabolism rate: ↓↓
hippocampus, focal side, 50 mg/kg i.v.
  Effect on local cerebral glucose metabolism rate: →↓
[29]
  Effect on local cerebral glucose metabolism rate: ↓
  Local glucose metabolism rate: 184 ± 7.1 µmol/100 g/min
hippocampus, focal side, 200 mg/kg i.v.
  Effect on local cerebral glucose metabolism rate: ↓↓
hippocampus, non-focal side, 50 mg/kg i.v.
  Effect on local cerebral glucose metabolism rate: ↓
[30]
  Effect on local cerebral glucose metabolism rate: ↓↓
  Local glucose metabolism rate: 87.2 ± 8.9 µmol/100 g/min
hippocampus, non-focal side, 200 mg/kg i.v.
  Effect on local cerebral glucose metabolism rate: ↓↓
